Results: publication PMC6021502, “Cannabigerol Action at Cannabinoid CB1 and CB2 Receptors and at CB1–CB2 Heteroreceptor Complexes” (Frontiers in Pharmacology, 2018)
Entries after “also recorded” stand apart in the source; their conditions may differ. Read-outs that look alike come from different tables or passages of the source.

What was measured:
[1] = test system: AEA cell uptake; set-up: method as in De Petrocellis et al., 2011; settings: ref De Petrocellis et al., 2011; read-out: Ki, inhibitor of AEA cell uptake; cited from earlier work
[2] = biological target: T1, human CB2 receptor (Homo sapiens, UniProt P34972); test: [3H]-CP-55940 competition binding, CHO membranes; settings: radioligand 0.3 nM [3H]-CP-55940, CHO membranes
T1 construct: expressed in transfected cells; membranes
T1 sequence (P34972 whole entry): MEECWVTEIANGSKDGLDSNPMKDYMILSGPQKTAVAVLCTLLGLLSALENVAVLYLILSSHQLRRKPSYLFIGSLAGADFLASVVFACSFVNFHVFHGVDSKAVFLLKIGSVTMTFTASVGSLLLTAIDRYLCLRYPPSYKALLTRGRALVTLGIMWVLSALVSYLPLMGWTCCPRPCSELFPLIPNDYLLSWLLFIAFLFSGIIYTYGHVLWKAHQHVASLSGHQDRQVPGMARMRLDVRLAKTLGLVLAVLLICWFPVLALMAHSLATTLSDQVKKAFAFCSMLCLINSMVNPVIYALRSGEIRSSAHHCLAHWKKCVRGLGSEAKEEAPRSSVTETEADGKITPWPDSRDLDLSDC

[3] = test system: T2, CB1R; test: β-arrestin 2 recruitment (BRET) in HEK-293T cells; assay type: cell-based, human
T2 construct: expressed in transfected cells; host or cells: HEK-293T, transient transfection (PEI)
Method: (§1) HEK-293T cells were grown in DMEM medium (Gibco, Paisley, Scotland, United Kingdom) supplemented with 2 mM L-glutamine, 100 U/mL penicillin/streptomycin, MEM Non-Essential Amino Acids Solution (1/100) and 5% (v/v) heat inactivated Foetal Bovine Serum (FBS) (Invitrogen, Paisley, Scotland, United Kingdom). […] Cells were transiently transfected with the PEI (Polyethylenimine, Sigma, St. Louis, MO, United States) method as previously described ([Medrano et al., 2017]; [Navarro et al., 2018b]) and used for functional assays 48 h later (unless otherwise stated).
(§2) Arrestin recruitment was determined as previously described ([Medrano et al., 2017]; [Navarro et al., 2018b]). Briefly, BRET experiments were performed in HEK-293T cells 48 h after transfection with the cDNA corresponding to the CB2R-YFP or CB1R-YFP and 1 μg cDNA corresponding to β-arrestin 2-Rluc. Cells (20 μg protein) were distributed in 96-well microplates (Corning 3600, white plates with white bottom) and were incubated with CBG for 15 min and stimulated with the agonist for 10 min prior the addition of 5 μM coelenterazine H (Molecular Probes, Eugene, OR, United States). After 1 min of adding coelenterazine H, BRET between β-arrestin 2-Rluc and receptor-YFP was determined and quantified. The readings were collected using a Mithras LB 940 (Berthold Technologies, Bad Wildbad, Germany) that allows the integration of the signals detected in the short-wavelength filter at 485 nm and the long-wavelength filter at 530 nm. To quantify protein-RLuc expression luminescence readings were also performed 10 min of adding 5 μM coelenterazine H.

[4] = test system: T3, CB2R; test: β-arrestin 2 recruitment (BRET) in HEK-293T cells; assay type: cell-based, human
T3 construct: expressed in transfected cells; host or cells: HEK-293T, transient transfection (PEI)
Method: as §1, §2

[5] = test system: T4, CB1R and CB2R (CB1–CB2 heteroreceptor complexes); test: cAMP determination in HEK-293T cells co-expressing both receptors; assay type: cell-based, human
T4 construct: expressed in transfected cells; host or cells: HEK-293T, transient co-transfection (PEI)
Method: as §1
Signaling experiments have been performed as previously described ([Navarro et al., 2010], [2016], [2018b]; [Hinz et al., 2018]). Two hours before initiating the experiment, HEK-293T cell-culture medium was replaced by serum-starved DMEM medium. Then, cells were detached, resuspended in growing medium containing 50 μM zardaverine and placed in 384-well microplates (2,500 cells/well). Cells were pretreated (15 min) with CBG -or vehicle- and stimulated with agonists (15 min) before adding 0.5 μM forskolin or vehicle. Readings were performed after 15 min incubation at 25°C. […] Fluorescence at 665 nm was analyzed in a PHERAstar Flagship microplate reader equipped with an HTRF optical module (BMG Lab Technologies, Offenburg, Germany).

[6] = biological target: CB1R; settings: cited from earlier work
[7] = biological target: T5, human CB1 receptor (Homo sapiens, UniProt P21554); test: biochemical; assay type: binding; settings: radioligand 0.3 nM [3H]-CP-55940, CHO membranes
T5 construct: expressed in transfected cells; membranes
T5 sequence (P21554 whole entry): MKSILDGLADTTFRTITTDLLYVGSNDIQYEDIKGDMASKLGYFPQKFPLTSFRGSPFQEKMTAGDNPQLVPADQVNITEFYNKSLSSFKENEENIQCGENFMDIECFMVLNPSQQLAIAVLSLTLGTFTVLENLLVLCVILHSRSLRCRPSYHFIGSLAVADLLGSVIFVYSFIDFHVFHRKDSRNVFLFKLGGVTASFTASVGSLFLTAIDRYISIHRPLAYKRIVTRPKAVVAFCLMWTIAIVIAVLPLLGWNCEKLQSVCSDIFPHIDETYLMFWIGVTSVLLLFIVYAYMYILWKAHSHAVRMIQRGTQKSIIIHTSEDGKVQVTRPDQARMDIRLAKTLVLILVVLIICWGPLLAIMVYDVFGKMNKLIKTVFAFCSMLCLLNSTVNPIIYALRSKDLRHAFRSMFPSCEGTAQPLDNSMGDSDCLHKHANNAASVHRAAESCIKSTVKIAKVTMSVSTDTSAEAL

[8] = biological target: TRPA1; settings: ref De Petrocellis et al., cited from earlier work
[9] = test system: mouse brain membranes; set-up: method as in Cascio et al., 2010; settings: 10 μM CBG, mouse brain membranes treated with AEA or CP-55940; ref Cascio et al., 2010; cited from earlier work
[10] = biological target: PPARγ; set-up: method as in Granja et al., 2012; Nadal et al., 2017; settings: ref Granja et al., 2012; Nadal et al., 2017; cited from earlier work
[11] = biological target: T5, human CB1 receptor; test: biochemical; assay type: binding
[12] = test system: T2, CB1R; test: ERK1/2 phosphorylation in HEK-293T cells; assay type: cell-based, human
Method: as §1
(§3) To determine ERK1/2 phosphorylation, 50,000 HEK-293T cells/well were plated in transparent Deltalab 96-well microplates and kept at the incubator for 24 h. 2 to 4 h before the experiment, the medium was substituted by serum-starved DMEM medium. Then, cells were pre-treated at 25°C for 10 min with vehicle or CBG in serum-starved DMEM medium and stimulated for an additional 7 min with the specific agonists. Cells were then washed twice with cold PBS before addition of lysis buffer (20 min treatment). 10 μL of each supernatant were placed in white ProxiPlate 384-well microplates and ERK 1/2 phosphorylation was determined using AlphaScreen®SureFire® kit (Perkin Elmer) following the instructions of the supplier and using an EnSpire® Multimode Plate Reader (PerkinElmer, Waltham, MA, United States).

[13] = test system: T3, CB2R; test: ERK1/2 phosphorylation in HEK-293T cells; assay type: cell-based, human
Method: as §1, §3

[14] = test system: α2-adrenoceptor; set-up: method as in Cascio et al., 2010; settings: ref Cascio et al., 2010; read-out: EC50 as α2-adrenoceptor agonist; cited from earlier work
[15] = test system: macrophages; set-up: method as in Giacoppo et al., 2017; settings: in vitro; blocked by AM630, not by SR141716A; ref Giacoppo et al., 2017; cited from earlier work
[16] = 100 nM or 1 μM CBG, 100 nM AEA or ACEA, CB1R
[17] = CBG alone, 1 nM to 10 μM, CB1R-expressing cells
[18] = CBG alone, 1 nM to 10 μM, CB2R-expressing cells

## CCCCCc1cc(O)c(C/C=C(\C)CCC=C(C)C)c(O)c1 [CBG, cannabigerol]
[1]
  Ki: 11.3 µM
[2]
  Ki: 1.23 µM
[3]; [16]
  Effect on agonist-induced β-arrestin recruitment: unable to modify
[3]; [17]
  β-arrestin recruitment: small increase
[4]; 100 nM or 1 μM CBG, 100 nM AEA or JWH133, CB2R
  Effect on β-arrestin recruitment induced by agonists: did not affect
[4]; [18]
  β-arrestin recruitment: noteworthy
[5]; 100 nM CBG pretreatment, cells co-expressing CB1R and CB2R
  Effect on AEA, ACEA and/or JWH133 actions in cAMP-related assays: significant effects, always reducing the effect of the agonists
[5]; CBG alone, dose-effect, cells expressing CB1R and CB2R
  Effect on cAMP level: additive
[6]; membranes from mice brain, preliminary results, ref Gauson et al., 2007, Pertwee, 2008
  Ki: 0.3 to 0.5 µM
[6]; mouse brain membranes, ref Cascio et al., 2010
  Ki: 0.381 µM
[7]
  Ki: 1.05 µM
[8]; 2008
  EC50 values, transient receptor potential channels of ankyrin type-1: micromolar range
[8]; 2011, read-out: EC50, agonist/desensitizer of TRPA1
  EC50: 0.7 µM
[9]
  Effect on [35S]GTPγS binding: antagonized
[10]
  Ki: 11.7 µM
[11]
  Displacement of [3H]-WIN-55,212-2 from CB1R: not able to displace the radioligand; also recorded: unable to compete
  Ki: > 30 µM
[12]; [16]
  Effect on agonist-induced MAPK phosphorylation: unable to modify
[12]; [17]
  Effect on MAPK phosphorylation: no significant action
[13]; 100 nM or 1 μM CBG pretreatment, 100 nM AEA or JWH133, CB2R
  Effect on AEA and JWH133 effects on ERK1/2 phosphorylation: reduced the effects of AEA and JWH133
[13]; [18]
  Activation of the MAP kinase pathway: notable
[14]
  EC50: 0.0002 µM
[15]
  Protection of macrophages against oxidative stress: protection of macrophages against oxidative stress
